Measurements taken from US20170022171A1, “2,5-DISUBSTITUTED CYCLOPENTANECARBOXYLIC ACIDS AND THEIR USE” (Bayer Pharma Aktiengesellschaft, priority 2014, published 2017).

Target: T1, human macrophage elastase (HME/hMMP-12) (Homo sapiens, UniProt P39900)
T1 construct: 0.5 nM HME; purchased R&D Systems 917-MP
Assay: In vitro HME inhibition test (standard or high-sensitivity)
Format: biochemical
Conditions: in some cases mean values
Procedure: The potency of the compounds according to the invention with respect to HME (MMP-12) is determined in an in vitro inhibition test. The HME-mediated amidolytic cleavage of a suitable peptide substrate leads to an increase in fluorescent light therein. The signal intensity of the fluorescent light is directly proportional to the enzyme activity. The active concentration of a test compound at which half the enzyme is inhibited (50% signal intensity of the fluorescent light) is reported as the IC50 value.
In a 384 hole microtiter plate, in a total test volume of 41 the test buffer (0.1 M HEPES pH 7.4, 0.15 M NaCl, 0.03 M CaCl2, 0.004 mM ZnCl2, 0.02 M EDTA, 0.005% Brij®), the enzyme (0.5 nM HME; from R&D Systems, 917-MP, autocatalytic activation according to the manufacturer's instructions) and the intramolecularly quenched substrate [5 μM Mca-Pro-Leu-Gly-Leu-Glu-Glu-Ala-Dap(Dnp)-NH2; Bachem, M-2670] are incubated in the absence and presence of the test substance (as a solution in DMSO) at 37° C. for two hours. The fluorescence intensity of the test mixtures is measured (excitation […], emission 393 nm). The IC50 values are ascertained by plotting the fluorescent light intensity against the active ingredient concentration.
In this case, an enzyme concentration ten times lower is used (final concentration, for example, 0.05 nM) in order to achieve an elevated test sensitivity. The incubation period chosen for the test is correspondingly longer (for example 16 hours).

T1 sequence (P39900 106-470): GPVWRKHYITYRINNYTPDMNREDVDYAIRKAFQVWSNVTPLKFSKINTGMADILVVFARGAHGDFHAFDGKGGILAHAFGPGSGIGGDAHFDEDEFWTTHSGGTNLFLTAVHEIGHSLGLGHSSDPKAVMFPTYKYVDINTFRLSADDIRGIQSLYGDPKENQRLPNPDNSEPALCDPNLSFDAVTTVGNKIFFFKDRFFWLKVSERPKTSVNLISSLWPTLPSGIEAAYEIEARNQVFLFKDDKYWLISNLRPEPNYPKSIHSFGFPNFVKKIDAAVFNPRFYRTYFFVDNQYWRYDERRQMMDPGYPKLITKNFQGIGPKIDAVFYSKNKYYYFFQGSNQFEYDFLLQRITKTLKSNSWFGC

Row | Structure (SMILES) | IC50 [nM]
1 | CCCCCCOc1ccc(C(=O)[C@H]2CC[C@@H](Cn3nnc4ccccc4c3=O)[C@@H]2C(=O)O)cc1 (racemic) [Example 6, (+/−)-(1RS,2RS,5SR)-2-[4-(Hexyloxy)benzoyl]-5-[(4-oxo-1,2,3-benzotriazin-3(4H)-yl)methyl]cyclopentanecarboxylic acid] | 0.17
2 | CCCCCOc1ccc(C(=O)[C@H]2CC[C@@H](Cn3nnc4ccccc4c3=O)[C@@H]2C(=O)O)cc1 (racemic) [Example 7, (+/−)-(1RS,2SR,5RS)-2-[(4-Oxo-1,2,3-benzotriazin-3(4H)-yl)methyl]-5-[4-(pentyloxy)benzoyl]cyclopentanecarboxylic acid] | 0.26
3 | CCCCOc1ccc(C(=O)[C@H]2CC[C@@H](Cn3nnc4ccccc4c3=O)[C@@H]2C(=O)O)cc1 (racemic) [Example 10, (+/−)-(1RS,2RS,5SR)-2-(4-Butoxybenzoyl)-5-[(4-oxo-1,2,3-benzotriazin-3 (4H)-yl)methyl]cyclopentanecarboxylic acid] | 0.36
4 | O=C(O)[C@H]1[C@H](Cn2nnc3ccc(C(F)(F)F)cc3c2=O)CC[C@@H]1C(=O)c1ccc(OCc2cccc(Cl)c2)cc1 (racemic) [Example 21, (+/−)-(1RS,2RS,5SR)-2-{4-[(3-Chlorobenzyl)oxy]benzoyl}-5-{[4-oxo-6-(trifluoromethyl)-1,2,3-benzotriazin-3(4H)-yl]methyl}cyclopentanecarboxylic acid] | 0.045
5 | O=C(O)[C@H]1[C@H](Cn2nnc3ccc(C(F)(F)F)cc3c2=O)CC[C@@H]1C(=O)c1ccc(OCc2ccc(Cl)cc2)cc1 (racemic) [Example 24, (+/−)-(1RS,2RS,5SR)-2-{4-[(4-Chlorobenzyl)oxy]benzoyl}-5-{[4-oxo-6-(trifluoromethyl)-1,2,3-benzotriazin-3(4H)-yl]methyl}cyclopentanecarboxylic acid] | 0.015
6 | O=C(O)[C@H]1[C@H](Cn2nnc3ccc(C(F)(F)F)cc3c2=O)CC[C@@H]1C(=O)c1ccc(OCc2ccc(Cl)c(Cl)c2)cc1 (racemic) [Example 27, (+/−)-(1RS,2RS,5SR)-2-{4-[(3,4-Dichlorobenzyl)oxy]benzoyl}-5-{[4-oxo-6-(trifluoromethyl)-1,2,3-benzotriazin-3(4H)-yl]methyl}cyclopentanecarboxylic acid] | 0.032
7 | O=C(O)[C@H]1[C@H](Cn2nnc3ccc(C(F)(F)F)cc3c2=O)CC[C@@H]1C(=O)c1ccc(OCc2cccc(N3CCOC3=O)c2)cc1 (racemic) [Example 33, (+/−)-(1RS,2RS,5SR)-2-(4-{[3-(2-Oxo-1,3-oxazolidin-3-yl)benzyl]oxy}benzoyl)-5-{[4-oxo-6-(trifluoromethyl)-1,2,3-benzotriazin-3 (4H)-yl]methyl}cyclopentanecarboxylic acid] | 0.13
8 | O=C(O)[C@H]1[C@H](Cn2nnc3ccc(C(F)(F)F)cc3c2=O)CC[C@@H]1C(=O)c1ccc(OCCc2ccccc2)cc1 (racemic) [Example 36, (+/−)-(1RS,2SR,5RS)-2-{[4-Oxo-6-(trifluoromethyl)-1,2,3-benzotriazin-3(4H)-yl]methyl}-5-[4-(2-phenylethoxy)benzoyl]cyclopentanecarboxylic acid] | 0.13
9 | O=C(O)[C@H]1[C@H](Cn2nnc3ccc(C(F)(F)F)cc3c2=O)CC[C@@H]1C(=O)c1ccc(OCC2CCCC2)cc1 (racemic) [Example 43, (+/−)-(1RS,2RS,5SR)-2-[4-(Cyclopentylmethoxy)benzoyl]-5-{[4-oxo-6-(trifluoromethyl)-1,2,3-benzotriazin-3(4H)-yl]methyl}cyclopentanecarboxylic acid] | 0.039
10 | O=C(O)[C@H]1[C@H](Cn2nnc3ccc(C(F)(F)F)cc3c2=O)CC[C@@H]1C(=O)c1ccc(OCC2CCC2)cc1 (racemic) [Example 46, (+/−)-(1RS,2RS,5SR)-2-[4-(Cyclobutylmethoxy)benzoyl]-5-{[4-oxo-6-(trifluoromethyl)-1,2,3-benzotriazin-3(4H)-yl]methyl}cyclopentanecarboxylic acid] | 0.034
11 | O=C(O)[C@H]1[C@H](Cn2nnc3ccc(C(F)(F)F)cc3c2=O)CC[C@@H]1C(=O)c1ccc(OCC2CC2)cc1 (racemic) [Example 49, (+/−)-(1RS,2RS,5SR)-2-[4-(Cyclopropylmethoxy)benzoyl]-5-{[4-oxo-6-(trifluoromethyl)-1,2,3-benzotriazin-3(4H)-yl]methyl}cyclopentanecarboxylic acid] | 0.14
12 | O=C(O)[C@H]1[C@H](Cn2nnc3ccc(C(F)(F)F)cc3c2=O)CC[C@@H]1C(=O)c1ccc(OCCC2CCCCC2)cc1 (racemic) [Example 50, (+/−)-(1RS,2RS,5SR)-2-[4-(2-Cyclohexylethoxy)benzoyl]-5-{[4-oxo-6-(trifluoromethyl)-1,2,3-benzotriazin-3(4H)-yl]methyl}cyclopentanecarboxylic acid] | 0.036
13 | O=C(O)[C@H]1[C@H](Cn2nnc3ccc(C(F)(F)F)cc3c2=O)CC[C@@H]1C(=O)c1ccc(OCCC2CCCC2)cc1 (racemic) [Example 53, (+/−)-(1RS,2RS,5SR)-2-[4-(2-Cyclopentylethoxy)benzoyl]-5-{[4-oxo-6-(trifluoromethyl)-1,2,3-benzotriazin-3(4H)-yl]methyl}cyclopentanecarboxylic acid] | 0.027
14 | CCCCCCOc1ccc(C(=O)[C@H]2CC[C@@H](Cn3nnc4ccc(C(F)(F)F)cc4c3=O)[C@@H]2C(=O)O)cc1 (racemic) [Example 57, (+/−)-(1RS,2RS,5SR)-2-[4-(Hexyloxy)benzoyl]-5-{[4-oxo-6-(trifluoromethyl)-1,2,3-benzotriazin-3(4H)-yl]methyl}cyclopentanecarboxylic acid] | 0.028
15 | CCCCCOc1ccc(C(=O)[C@H]2CC[C@@H](Cn3nnc4ccc(C(F)(F)F)cc4c3=O)[C@@H]2C(=O)O)cc1 (racemic) [Example 63, (+/−)-(1RS,2SR,5RS)-2-{[4-Oxo-6-(trifluoromethyl)-1,2,3-benzotriazin-3(4H)-yl]methyl}-5-[4-(pentyloxy)benzoyl]cyclopentanecarboxylic acid] | 0.015
16 | CCCCOc1ccc(C(=O)[C@H]2CC[C@@H](Cn3nnc4ccc(C(F)(F)F)cc4c3=O)[C@@H]2C(=O)O)cc1 (racemic) [Example 66, (+/−)-(1RS,2RS,5SR)-2-(4-Butoxybenzoyl)-5-{[4-oxo-6-(trifluoromethyl)-1,2,3-benzotriazin-3 (4H)-yl]methyl}cyclopentanecarboxylic acid] | 0.043
17 | CCCOc1ccc(C(=O)[C@H]2CC[C@@H](Cn3nnc4ccc(C(F)(F)F)cc4c3=O)[C@@H]2C(=O)O)cc1 (racemic) [Example 69, (+/−)-(1RS,2SR,5RS)-2-{[4-Oxo-6-(trifluoromethyl)-1,2,3-benzotriazin-3(4H)-yl]methyl}-5-(4-propoxybenzoyl)cyclopentanecarboxylic acid] | 0.094
18 | CC(C)COc1ccc(C(=O)[C@H]2CC[C@@H](Cn3nnc4ccc(C(F)(F)F)cc4c3=O)[C@@H]2C(=O)O)cc1 (racemic) [Example 72, (+/−)-(1RS,2RS,5SR)-2-(4-Isobutoxybenzoyl)-5-{[4-oxo-6-(trifluoromethyl)-1,2,3-benzotriazin-3(4H)-yl]methyl}cyclopentanecarboxylic acid] | 0.13
19 | O=C(O)[C@H]1[C@H](Cn2nnc3ccc(C(F)(F)F)cc3c2=O)CC[C@@H]1C(=O)c1ccc(SCc2ccccc2)cc1 (racemic) [Example 73, (+/−)-(1RS,2RS,5SR)-2-[4-(Benzylsulphanyl)benzoyl]-5-{[4-oxo-6-(trifluoromethyl)-1,2,3-benzotriazin-3(4H)-yl]methyl}cyclopentanecarboxylic acid] | 0.17
